Experimental data taken from US8088951B2, “Epigenetic mechanisms re-establish access to long-term memory after neuronal loss” (Massachusetts Institute of Technology, priority 2006, dated 2012).
Entries after “also recorded” stand apart in the source; their conditions may differ.

Legend:
Assay type in all cases: in vivo
H3 and H4 acetylation = assay: Histone acetylation in hippocampal lysates of wild type mice (immunoblot); conditions: daily ip for 4 weeks
Method: Immunoblotting and staining: Lysates for immunoblotting were prepared as described by Fischer et al. (3). To isolate histones, brain tissue was homogenized in TX-buffer (50 mM Tris HCL, 150 mM NACL, 2 mM EDTA, 1% Triton-100) and incubated at 4° C. for 15 min prior to centrifugation at 200 rpm for 10 min. After a wash-step in TX-buffer the pellet was dissolved in TX-buffer containing 0.2M HCl and incubated on ice for 30 min, before a second centrifugation at 10000 rpm for 10 min. The supernatant was either dialysed or directly used for immunoblotting. Antibodies were used in 1:1000 concentrations. All antibodies detecting histones and anti-PSD-95 were form Upstate (Lake Placid, N.Y.). Anti-synaptophysin (SVP38) was from Sigma. Anti-neuronal nuclei (neuN) and anti-growth associated protein (Gap43) were from Chemicon (Temecula, Calif.) and anti-N-cadherin, anti-β-catenin were from Santa Cruz (Santa Cruz, Calif.). Immunostaining was performed as described by Fischer et al. (3). Antibodies mentioned above were used in a 1:500 dilution. […]
Mechanism underlying EE. […] Since histone acetylation, an epigenetic mechanism regulating gene expression via chromatin remodeling, has recently been implicated in synaptic plasticity and learning behavior (15-18), the induction of a transcriptional program by EE that leads to activation of plasticity genes was evaluated. […]

C57BL/6J mice = assay: Contextual fear conditioning (associative learning) in wild type mice; conditions: for freezing behavior during the memory test: test 24 h later
Text: (§1) Learning tests: All behavioral testing is described in Fischer et al. (3).
Mechanism underlying EE. Other than a few genes involved in synaptic function, relatively little is known about the mechanism underlying EE (12-14). Since histone acetylation, an epigenetic mechanism regulating gene expression via chromatin remodeling, has recently been implicated in synaptic plasticity and learning behavior (15-18), the induction of a transcriptional program by EE that leads to activation of plasticity genes was evaluated. Wild type mice were subjected to EE and hippocampal and cortical brain lysates were obtained 3, 24 h or 2 weeks later (n=3/group) by acid extraction and probed with antibodies detecting histone-tail modification that indicate active chromatin. Increases in hippocampal H3 (K-9, K14) and H4 (K-5) and in cortical H3 (K-9) and H4 (K-5) acetylation were observed. […] No changes in H4 acetylation were observed when the Ac-H4 (K,8,12,16) antibody was used, which is likely due to the fact that H4-K16 is a marker of condensed chromatin. EE induced hippocampal and cortical histone 3 (H3) and histone 4 (H4) acetylation and […] as soon as 3 hours after treatment (FIGS. 3a, b). […] To investigate whether inhibition of HDACs mimics the effects of EE, SB was administered daily [ip] into wild type mice for 4 weeks (FIG. 3c). […] Two days after the last injection mice were trained in the fear conditioning paradigm. […] Locomotor activity or basal anxiety was not altered in SB-injected mice (FIG. 8c).
The effect of sodiumbutyrate injection on learning, basal anxiety, explorative behavior and brain plasticity. C57BL/6J mice were subjected to fear conditioning and injected intraperitoneally [ip] with 1.2 g/kg sodiumbutyrate (SB, n=8) or saline (vehicle; n=8) immediately afterwards. […] C57BL/6J mice were implanted with microcannulae into the lateral brain ventricles (icv) and injected with either 100 ng SB, 50 ng TSA or vehicle immediately after fear conditioning (n=8/group). […] C57BL/6J were daily injected [ip] with SB or saline (n=8/group) for 4 weeks before all mice were subjected to the elevated plus maze and open field test. […] Immunoblots were quantified relative to the optical density of the vehicle-group (set to 1). […] The analysis was performed as described under FIG. 1g.
The effects of SAHA and MS-275, relative to sodium butyrate (SB), on the hippocampus dependent associative learning in wildtype mice.
Mice were injected 10 days with either 5 mg/kg of MS275 or 25 mg/kg of UW_WT-I—06 or UW_WT-I—05 before training and memory tests as described above. […] Andorfer, C. et al. Cell-cycle reentry and cell death in transgenic mice expressing nonmutant human tau isoforms. J neurosci 25, 5446-5454 (2005). • 2. Santacruz, K. et al. Tau suppression in a neurodegenerative mouse model improves memory function. Science 309, 476-481 (2005). • 3. Fischer, A., Sananbenesi, F., Pang, P. T., Lu, B. & Tsai, L. H. Opposing roles of transient and prolonged expression of p25 in synaptic plasticity and hippocampus-dependent memory. Neuron 48, 825-838 (2005). • 4. Cruz, J. C. & Tsai, L. H. Jekyll and Hyde kinase: roles for Cdk5 in brain development and disease. Curr Opin Neurobiol. 14, 390-394 (2004). • 5. Cruz, J. C., Tseng, H. C., Goldman, J. A., Shih, H. & Tsai, L. H. Aberrant Cdk5 activation by p25 triggers pathological events leading to neurodegeneration and neurofibrillary tangles. Neuron 40, 471-83 (2003). • 6. Nithianantharajah, J. & Hannan, A. J. Enriched environments, experience-dependent plasticity and disorders of the nervous system. Nat Rev Neurosci 7, 697-709 (2006). • 7. Kim, J. J. & Fanselow, M. S. Modality-specific retrograde amnesia of fear. Science 256, 675-7 (1992). • 8. Gilmore, E. C. & Herrup, K. Neocortical cell migration: GABAergic neurons and cells in layers I and VI move in a cyclin-dependent kinase 5-independent manner. J Neurosci 21, 9690-700 (2001). • 9. […]

CK-p25 Tg mice = assay: Water maze learning in CK-p25 Tg mice after neurodegeneration; conditions: 6 weeks p25 induction, then daily 1.2 g/kg for 4 weeks, vs vehicle, P<0.0001
Text: as §1
Reinstatement of learning behavior through inhibition of HDAC. Whether sustained inhibition of HDACs would reinstate learning behavior and recover access to long-term memories in CK-p25 Tg mice that had developed synaptic and neuronal loss was investigated. P25 was induced in 11 month old CK-p25 Tg mice for 6 weeks. Afterwards p25 expression was repressed and one group of CK-p25 Tg mice was subjected to daily sodiumbutyrate (SB) injection (1.2 g/kg) for 4 weeks (n=9), whereas the other group received saline injection (n=9). […] To this end p25 expression was induced in 11-month old CK-p25 mice for 6 weeks, before one group was injected daily for 4 weeks with SB whereas the control group received saline injection (FIG. 4a).

[1] = system: MAP-2, synaptophysin (SVP), synaptic and dendritic marker proteins; assay: Synaptic and dendritic markers in hippocampus of wild type mice (immunostaining, immunoblot); conditions: wild type mice injected for 4 weeks
Method: Immunoblotting and staining: Lysates for immunoblotting were prepared as described by Fischer et al. (3). To isolate histones, brain tissue was homogenized in TX-buffer (50 mM Tris HCL, 150 mM NACL, 2 mM EDTA, 1% Triton-100) and incubated at 4° C. for 15 min prior to centrifugation at 200 rpm for 10 min. After a wash-step in TX-buffer the pellet was dissolved in TX-buffer containing 0.2M HCl and incubated on ice for 30 min, before a second centrifugation at 10000 rpm for 10 min. The supernatant was either dialysed or directly used for immunoblotting. Antibodies were used in 1:1000 concentrations. All antibodies detecting histones and anti-PSD-95 were form Upstate (Lake Placid, N.Y.). Anti-synaptophysin (SVP38) was from Sigma. Anti-neuronal nuclei (neuN) and anti-growth associated protein (Gap43) were from Chemicon (Temecula, Calif.) and anti-N-cadherin, anti-β-catenin were from Santa Cruz (Santa Cruz, Calif.). Immunostaining was performed as described by Fischer et al. (3). Antibodies mentioned above were used in a 1:500 dilution. Anti-MAP-2 antibody (Sigma) was used in a 1:200 dilution.
LSMeta10 software (Zeiss; Jena, Germany) was used to calculate the mean SVP intensity. Brain sections with the strongest intensity were scanned first. All other images included in the analysis where scanned using the same microscope setting. […] Scale bar: 20 μm. py, pyramidal cell layer (FIG. 1g).
The effect of sodiumbutyrate injection on learning, basal anxiety, explorative behavior and brain plasticity. C57BL/6J mice were subjected to fear conditioning and injected intraperitoneally [ip] with 1.2 g/kg sodiumbutyrate (SB, n=8) or saline (vehicle; n=8) immediately afterwards. […] C57BL/6J mice were implanted with microcannulae into the lateral brain ventricles (icv) and injected with either 100 ng SB, 50 ng TSA or vehicle immediately after fear conditioning (n=8/group). […] Immunoblots were quantified relative to the optical density of the vehicle-group (set to 1). […]

`CCCC(=O)[O-].[Na+]` [SB, sodiumbutyrate] was tested, and the “H3- and H4 acetylation in the hippocampus” value (H3 and H4 acetylation) was “robust increase”, the “freezing during the memory test” value (C57BL/6J mice; daily ip 1.2 g/kg for 4 weeks, trained two days after last injection, tested 24 h later, P<0.0001) was “more freezing during the memory test” and the “freezing behavior during the memory test” value (C57BL/6J mice; icv 100 ng SB or 50 ng TSA immediately after fear conditioning, P<0.0001) was “more freezing behavior than vehicle injected mice”. For the same compound, the “freezing behavior during the memory test” value (C57BL/6J mice; single ip 1.2 g/kg immediately after fear conditioning, P<0.0001) was “significantly more freezing behavior”, the associative learning (C57BL/6J mice; wild type mice, intraperitoneal [ip] and intracerebroventricular [icv] injections) was “significantly facilitated associative learning” and the “associative learning, contextual fear conditioning paradigm” value (C57BL/6J mice; wildtype mice, chronic treatment for 10-21 days) was “facilitates contextual fear conditioning learning”. The “spatial learning (escape latency)” value (CK-p25 Tg mice) was “significantly shorter escape latency”, the “levels of synaptic and dendritic marker proteins (markers for brain plasticity), hippocampal lysates” value ([1]; immunoblots relative to vehicle) was “elevated levels; also recorded: Several markers for brain plasticity were increased” and the “hippocampal MAP-2 immunoreactivity (IR)” value ([1]; vs vehicle) was “increased MAP-2 immunoreactivity (IR)”. The “hippocampal synaptophysin (SVP) IR” value ([1]; vs vehicle) was “increased SVP IR”.
